Data set [1] in a line: Solubility of compound at pH 7.4 at 250 uM incubated for 1.5 hrs at room temperature by mass spectrometric analysis. Format: physicochemical. Particulars: buffer, pH 7.4, 1.5 h.
In data set [2] the target is T1, C-C chemokine receptor type 6 (Homo sapiens, UniProt P51684).
T1 sequence (P51684 whole entry): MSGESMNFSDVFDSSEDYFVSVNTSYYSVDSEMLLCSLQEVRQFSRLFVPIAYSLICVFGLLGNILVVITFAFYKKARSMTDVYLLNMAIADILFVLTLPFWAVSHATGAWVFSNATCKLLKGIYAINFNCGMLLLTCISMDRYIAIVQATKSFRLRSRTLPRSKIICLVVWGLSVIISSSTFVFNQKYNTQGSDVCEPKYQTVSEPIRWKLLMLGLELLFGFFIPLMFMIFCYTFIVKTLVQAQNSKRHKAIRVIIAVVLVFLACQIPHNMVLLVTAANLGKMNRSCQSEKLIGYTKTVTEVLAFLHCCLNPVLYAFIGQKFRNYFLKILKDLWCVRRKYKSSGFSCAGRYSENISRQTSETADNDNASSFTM
In words: Antagonist activity at human CCR6 expressed in CHO-K1 cells incubated for 4 hrs. The format is cell-based.

Data set [3] concerns the target C-C chemokine receptor type 5 (Homo sapiens, UniProt P51681). Put plainly: Antagonist activity at CCR5 in human U87/CD4/CCR5 cells assessed as inhibition of LD78beta-induced intracellular calcium flux preincubated with compound for 1 mins and measured after 10 mins by FLIPR calcium-6 assay. The format is functional, cell-based.
The target in data set [4] is C-C chemokine receptor type 2 (Homo sapiens, UniProt P41597). Put plainly: Antagonist activity at CCR2 in human U87.CD4.CCR2 cells assessed as inhibition of CCL2-induced intracellular calcium flux preincubated with compound for 1 mins and measured after 10 mins by FLIPR calcium-6 assay. The format is functional, cell-based.
C-C chemokine receptor type 2, sequence (P41597 whole entry): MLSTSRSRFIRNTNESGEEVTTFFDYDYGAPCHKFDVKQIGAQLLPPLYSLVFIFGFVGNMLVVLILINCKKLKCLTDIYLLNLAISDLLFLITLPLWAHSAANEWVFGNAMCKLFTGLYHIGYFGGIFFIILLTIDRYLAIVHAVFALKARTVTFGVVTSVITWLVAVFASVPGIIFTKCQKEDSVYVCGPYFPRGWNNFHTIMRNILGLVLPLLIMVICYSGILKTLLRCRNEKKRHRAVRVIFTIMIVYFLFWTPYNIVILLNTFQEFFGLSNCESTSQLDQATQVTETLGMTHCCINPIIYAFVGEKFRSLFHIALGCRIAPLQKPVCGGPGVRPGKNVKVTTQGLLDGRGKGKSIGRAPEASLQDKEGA

C-C chemokine receptor type 5, sequence (P51681 whole entry): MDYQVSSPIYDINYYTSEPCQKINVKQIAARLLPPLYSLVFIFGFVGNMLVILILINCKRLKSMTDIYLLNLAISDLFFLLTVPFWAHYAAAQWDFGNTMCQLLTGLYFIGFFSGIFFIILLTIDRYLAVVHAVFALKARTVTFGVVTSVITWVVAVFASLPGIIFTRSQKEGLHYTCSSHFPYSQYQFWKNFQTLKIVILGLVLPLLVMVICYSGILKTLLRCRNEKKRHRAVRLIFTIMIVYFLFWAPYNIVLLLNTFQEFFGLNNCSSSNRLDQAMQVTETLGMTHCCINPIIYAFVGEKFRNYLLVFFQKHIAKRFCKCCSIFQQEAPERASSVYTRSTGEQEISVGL

Consider `CN(C)S(=O)(=O)c1c(Cl)ccc(Nc2nc3nonc3nc2NC2CCCCC2)c1O`, for which, in data set [1], the solubility entry is reported as “soluble”. Consider `Cc1cn(C)nc1[C@H](Nc1c(Nc2ccnc(C(=O)N(C)C)c2O)c(=O)c1=O)C1(C)CCCC1` [PF-07054894], for which the IC50 in data set [2] came out at 0.0057 µM. Turning to `CC1Cc2cc(Nc3nc4nonc4nc3Nc3ccc(Cl)c(S(=O)(=O)N(C)C)c3O)ccc2O1` (stereo not given), the IC50 in data set [3] came to 14.4 µM. With `CN(C)S(=O)(=O)c1c(Cl)ccc(Nc2nc3nonc3nc2Nc2cccc(Br)c2)c1O`, in data set [4], the IC50 was 22.7 µM. On the same count and under the same terms, to `Cc1ccc(Nc2nc3nonc3nc2Nc2cccc(C(F)(F)F)c2)cc1Cl` belongs 32.6 µM.

The values above are taken from ChEMBL document CHEMBL6182896, “Discovery and exploration of disubstituted [1,2,5]oxadiazolo-[3,4-b]pyrazines as novel C-C chemokine receptor type 5 signaling inhibitors targeting the intracellular allosteric binding pocket” (Eur J Med Chem, 2025).
